What was measured:
[1] = tested on: IL-4 stimulated expression of CD23 in human Ramos B cells (JAK-1 and JAK-3); assay: Assay for Ramos B-Cell Line Stimulated with IL-4 (CD23 upregulation, FACS); type: cell-based; conditions: Ramos B-cell line stimulated with IL-4; CD23 expression by FACS; read-out: IC50, Example 41
In short: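 Log-phase Ramos cells, 1 h compound pre-incubation at 37 °C; IL-4 50 units/mL final, 20-24 h; CD23-PE stain, FACS; IC50.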

Primary human T-cells = assay: Primary Human T-Cell Proliferation Assay Stimulated with IL-2 (CellTiter-Glo); type: cell-based; conditions: primary human T-cell proliferation stimulated with IL-2; read-out: IC50, Example 42
In short: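 IC50 derived from CellTiter-Glo ATP signal after 72 hours of IL-2-driven proliferation at 37° C. Cells: primary human T-cells from blood, stimulated beforehand 3-4 days on anti-CD3/anti-CD28 with IL-2, then rested from IL-2 before compound exposure in duplicate; IL-2-free wells served as unstimulated control.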

Molecule | IC50 [1] [µM] | IC50 (Primary human T-cells) [µM]
Cc1noc(COc2cccc(Nc3nc(Nc4ccc(C)c(S(N)(=O)=O)c4)ncc3F)c2)n1 [Compound I-254, N2-(3-Aminosulfonyl-4-methylphenyl)-5-fluoro-N4-[3-(3-methyl-1,2,4-oxadiazol-5-yl)methyleneoxyphenyl]-2,4-pyrimidinediamine] | 0.155 | 1.91
Cc1noc(COc2ccc(Nc3nc(Nc4ccc(F)c(S(N)(=O)=O)c4)ncc3F)cc2)n1 [Compound I-266, N2-(3-Aminosulfonyl-4-fluorophenyl)-5-fluoro-N4-[4-(3-methyl-1,2,4-oxadiazol-5-yl)methyleneoxyphenyl]-2,4-pyrimidinediamine] | 0.0851 | 0.201
N#CCOc1ccc(Nc2nc(Nc3ccc(F)c(S(N)(=O)=O)c3)ncc2F)cc1 [Compound I-33, N2-(3-Aminosulfonyl-4-fluoro)phenyl-N4-(4-cyanomethoxy)phenyl-5-fluoro-2,4-pyrimidinediamine] | 0.0965 | 0.171
N2-(3-Aminocarbonyl-5-methylphenyl)-5-fluoro-N2-[4-(1-methylpyrazol-5-yl)amidophenyl)-2,4-pyrimidinediamine [II-21] | 0.698 | 1.76
Cc1cc(COc2ccc(Nc3nc(Nc4ccc(C)c(S(N)(=O)=O)c4)ncc3F)cc2C)no1 [Compound I-234, N2-(3-Aminosulfonyl-4-methylphenyl)-5-fluoro-N4-[3-methyl-4-(5-methylisoxazol-3-yl)methyleneoxyphenyl]-2,4-pyrimidinediamine] | 0.102 | 1.01
Cc1cc(COc2ccc(Nc3nc(Nc4cccc(S(=O)(=O)N(Cc5oc(=O)oc5C)Cc5oc(=O)oc5C)c4)ncc3F)cc2)no1 [Compound I-248, N2-{3-[N-N-Di-[(5-Methyl-1,3-dioxolene-2-one-4-yl)methylene]]aminosulfonylphenyl}-5-fluoro-N4-[4-(5-methylisoxazol-3-yl)methyleneoxyphenyl]-2,4-pyrimidinediamine] | 0.388 | 0.138
Cc1nnc(COc2ccc(Nc3nc(Nc4ccc(F)c(S(N)(=O)=O)c4)ncc3F)cc2)o1 [Compound I-278, N2-(3-Aminosulfonyl-4-fluorophenyl)-5-fluoro-N4-[4-(5-methyl-1,3,4-oxadiazol-2-yl)methyleneoxyphenyl]-2,4-pyrimidinediamine] | 0.193 | 0.412
Cc1cc(COc2ccc(Nc3nc(Nc4ccc(F)c(S(N)(=O)=O)c4)ncc3F)cc2)no1 [Compound I-233, N2-(3-Aminosulfonyl-4-fluorophenyl)-5-fluoro-N4-[4-(5-methylisoxazol-3-yl)methyleneoxyphenyl]-2,4-pyrimidinediamine] | 0.148 | 0.377
CCN(CC)CCNS(=O)(=O)c1cccc(Nc2ncc(F)c(Nc3ccc(OCc4cc(C)on4)c(C)c3)n2)c1 [Compound I-244, N2-[3-(2-N,N-Diethylaminoethyl)aminosulfonylphenyl)-5-fluoro-N4-[3-methyl-4-(5-methylisoxazol-3-yl)methyleneoxyphenyl]-2,4-pyrimidinediamine] | 0.285 | 1.41
N#CCOc1ccc(Nc2nc(Nc3ccc(Cl)c(S(N)(=O)=O)c3)ncc2F)cc1 [Compound I-21, N2-(3-Aminosulfonyl-4-chlorophenyl)-N4-(4-cyanomethoxy)phenyl-5-fluoro-2,4-pyrimidinediamine] | 0.093 | 0.258
Cc1noc(COc2ccc(Nc3nc(Nc4ccc(C)c(S(N)(=O)=O)c4)ncc3F)cc2)n1 [Compound I-259, N2-(3-Aminosulfonyl-4-methylphenyl)-5-fluoro-N4-[4-(3-methyl-1,2,4-oxadiazol-5-yl)methyleneoxyphenyl]-2,4-pyrimidinediamine] | 0.0279 | 0.0658
Cc1ccc(Nc2ncc(F)c(Nc3cccc(CNC(=O)C4CC4)c3)n2)cc1S(N)(=O)=O [III-40, N2-(3-aminosulfonyl-4-methyl)phenyl-N4-(3-cyclopropylcarbonylaminomethyl)phenyl-5-fluoro-2,4-pyrimidinediamine] | 0.134 | 0.229

Further molecules by falling IC50 [1], results first:

IC50 [1] [µM] | Molecule | IC50 (Primary human T-cells) [µM]
0.256 | CNS(=O)(=O)c1cc(Nc2ncc(F)c(Nc3cccc(OCc4nc(C)no4)c3)n2)ccc1C [Compound I-255, 5-Fluoro-N2-[3-(N-methylaminosulfony)-4-methylphenyl]-N4-[3-(3-methyl-1,2,4-oxadiazol-5-yl)methyleneoxyphenyl]-2,4-pyrimidinediamine] | 2.86
0.236 | Cc1cc(Nc2nc(Nc3ccc(S(N)(=O)=O)cc3)ncc2F)ccc1OCC#N [Compound I-22, N2-(4-Aminosulfonyl)phenyl-N4-(4-cyanomethoxy-3-methyl)phenyl-5-fluoro-2,4-pyrimidinediamine] | 0.944
0.202 | CCN(CC)CCNS(=O)(=O)c1ccc(Nc2ncc(F)c(Nc3ccc(OCc4cc(C)on4)c(C)c3)n2)cc1 [Compound I-245, N2-[4-(2-N,N-Diethylaminoethyl)aminosulfonylphenyl)-5-fluoro-N4-[3-methyl-4-(5-methylisoxazol-3-yl)methyleneoxyphenyl]-2,4-pyrimidinediamine] | 1.74
0.138 | N#CCc1ccc(Nc2nc(Nc3ccc(Cl)c(S(N)(=O)=O)c3)ncc2F)cc1 [III-8, N2-(3-Aminosulfonyl-4-chloro)phenyl-N4-(4-cyanomethyl)phenyl-5-fluoro-2,4-pyrimidinediamine] | 0.921
0.0783 | 5-Fluoro-N4-[4-(3-methyl-1,2,4-oxadiazol-3-yl)methyleneoxyphenyl]-N2-[(3-N-propanamido)sulfonylphenyl)]-2,4-pyrimidinediamine [Compound I-262] | 0.164
0.0726 | Cc1cc(COc2ccc(Nc3nc(Nc4cc(C)c(Cl)c(S(N)(=O)=O)c4)ncc3F)cc2)no1 [Compound I-218, N2-(3-Aminosulfonyl-4-chloro-5-methylphenyl)-5-fluoro-N4-[4-(5-methylisoxazol-3-yl)methyleneoxyphenyl]-2,4-pyrimidinediamine] | 0.116
0.0619 | Cc1ccc(Nc2ncc(F)c(Nc3cc(C)c(OCC#N)c(C)c3)n2)cc1S(N)(=O)=O [Compound I-27, N2-(3-Aminosulfonyl-4-methyl)phenyl-N4-(4-cyanomethoxy-3,5-dimethyl)phenyl-5-fluoro-2,4-pyrimidinediamine] | 0.914
0.0301 | Cc1cc(Nc2nc(Nc3cccc(S(N)(=O)=O)c3)ncc2F)ccc1OCC#N [Compound I-23, N2-(3-Aminosulfonyl)phenyl-N4-(4-cyanomethoxy-3-methyl)phenyl-5-fluoro-2,4-pyrimidinediamine] | 0.0882
0.028 | Cc1noc(COc2ccc(Nc3nc(Nc4cccc(S(N)(=O)=O)c4)ncc3F)cc2)n1 [Compound I-258, N2-(3-Aminosulfonylphenyl)-5-fluoro-N4-[4-(3-methyl-1,2,4-oxadiazol-5-yl)methyleneoxyphenyl]-2,4-pyrimidinediamine] | 0.0554
